Reference: patent EP2992880A1, “Use of heme oxygenase 1 inducers and cannabinoid 2 receptor or delta-opioid receptor agonists in inflammatory pain” (Fundació Institut de Recerca de l'Hospital de la Santa Creu …, priority 2014, dated 2016)

What was measured:
Format in all cases: in vivo, male C57BL/6 mice
CFA-injected mice [1] = test: von Frey filaments test (mechanical allodynia) in CFA-induced chronic inflammatory pain; conditions: for Mechanical allodynia von Frey filaments strength / Mechanical allodynia, Experimental results (%) (maximal possible effect): ipsilateral paw; for Mechanical allodynia von Frey filaments strength: mean ± SEM, n=6; for reversal of the antiallodynic (antinociceptive) effects produced by 300 µg of JWH-015 / reversal of the antiallodynic effects produced by 150 µg of DPDPE: subplantar coadministration; for Mechanical allodynia, Experimental results (%) (maximal possible effect): CoPP 10 mg/kg intraperitoneal; for reversal of the antiallodynic effects produced by 150 µg of DPDPE: P < 0.001
Procedure: (§1) The experiments were performed in male C57BL/6 mice acquired from Harlan Laboratories (Barcelona, Spain). All mice weighing 21 to 25 g were housed under 12-h/12-h light/ dark conditions in a room with controlled temperature (22° C) and humidity (66%). Animals had free access to food and water and were used after a minimum of 7 days acclimatization to the housing conditions. All experiments were performed according with the Guide for the Care and Use of Laboratory Animals as adopted and promulgated by the U.S. National Institutes of Health and approved by the local Committee of Animal Use and Care of the Autonomous University of Barcelona. All efforts were made to minimize animal suffering and to reduce the number of animals used.
(§2) Chronic inflammatory pain was induced by the subplantar injection of 30 µl of CFA (Sigma) into the right hind paw under brief anesthetic conditions with isoflurane according to previous works (Leánez et al., Eur J Pharmacol, 2009, 602:41-49; Hervera et al., Naunyn Schmiedebergs Arch Pharmacol, 2009, 380:345-352). All experiments were performed at 10 days after CFA injection. At this time point, all of these animals developed a local inflammatory reaction, allodynia to mechanical stimuli and hyperalgesia to noxious thermal stimuli, as previously reported (Negrete et al., PLoS One, 2011, 6:e26688). The development of mechanical allodynia and thermal hyperalgesia was evaluated by using the von Frey filaments and plantar tests, respectively. All animals were tested in each paradigm before and at 10 days after CFA-injection.
Mechanical allodynia was quantified by measuring the hind paw withdrawal response to von Frey filament stimulation. In brief, animals were placed in methacrylate cylinders (20 cm high, 9 cm diameter; Servei Estació, Barcelona, Spain) with a wire grid bottom through which the von Frey filaments (North Coast Medical, Inc., San Jose, CA) with a bending force in the range of 0.008-3.5 g were applied by using a modified version of the up-down paradigm, as previously reported by Chaplan et al. (J Neurosci Methods, 1994, 53:55-63). The filament of 0.4 g was used first and the 3.0 g filament was used as a cut-off. Then, the strength of the next filament was decreased or increased according to the response. The threshold of response was calculated from the sequence of filament strength used during the up-down procedure by using an Excel program (Microsoft Iberia SRL, Barcelona, Spain) that includes curve fitting of the data. Clear paw withdrawal, shaking, or licking of the paw was considered as a nociceptive-like response. Both ipsilateral and contralateral hind paws were tested. Animals were allowed to habituate for 1 h before testing in order to allow an appropriate behavioral immobility.
In a first set of experiments, we assessed the expression of inflammatory pain induced by the subplantar administration of CFA as previously used (Leánez et al., Eur J Pharmacol, 2009, 602:41-49). After the habituation period, baseline responses were established in the following sequence: von Frey filaments and plantar test. After baseline measurements, inflammatory pain was induced and animals were again tested in each paradigm at day 10 after CFA injection by using the same sequence as for baseline responses. The contralateral paws were used as controls (n = 6 animals per group).
In a second set of experiments, we evaluated the mechanical antiallodynic and thermal antihyperalgesic effects of the subplantar administration of different doses of a specific DOR (DPDPE) or CB2R (JWH-015) agonist and their respective vehicles in the contralateral and ipsilateral paw of CFA-injected animals (n = 6 animals per group). […]

CFA-injected mice [2] = test: plantar test (thermal hyperalgesia) in CFA-induced chronic inflammatory pain; conditions: for Thermal hyperalgesia Withdrawal latency: mean ± SEM, n=6; for reversal of the antihyperalgesic (antinociceptive) effects produced by 300 µg of JWH-015 / reversal of the antihyperalgesic effects produced by 150 µg of DPDPE: subplantar coadministration; for reversal of the antihyperalgesic effects produced by 150 µg of DPDPE: P < 0.001
Procedure: as §1, §2
Thermal hyperalgesia was assessed as previously reported by Hargreaves et al. (Pain, 1988, 32:77-88). Paw withdrawal latency in response to radiant heat was measured using the plantar test apparatus (Ugo Basile, Varese, Italy). Briefly, mice were placed in methacrylate cylinders (20 cm high x 9 cm diameter) positioned on a glass surface. The heat source was positioned under the plantar surface of the hind paw and activated with a light beam intensity, chosen in preliminary studies to give baseline latencies from 8 to 10 s in control mice. A cut-off time of 12 s was used to prevent tissue damage in absence of response. The mean paw withdrawal latencies from the ipsilateral and contralateral hind paws were determined from the average of three separate trials, taken at 5 min intervals to prevent thermal sensitization and behavioral disturbances. Animals were habituated to the environment for 1 h before the experiment to become quiet and to allow testing. […]
In another set of experiments, we evaluated the mechanical antiallodynic and thermal antihyperalgesic effects produced by the subplantar administration of 290 µg of SnPP alone or combined with the subplantar administration of a high dose of DPDPE (150 µg) or JWH-015 (300 µg) in the contralateral and ipsilateral paw of CFA-injected animals (n = 6 animals per group).
The reversibility of the antinociceptive effects produced by the subplantar administration of DPDPE (150 µg) or JWH-015 (300 µg), as doses that produce the maximal antiallodynic and antihyperalgesic effects after peripheral inflammation, by their subplantar coadministration with specific (naltrindole; 50 µg; AM630; 60 µg) and an unspecific peripheral opioid antagonist (naloxone methiodide, NX-ME; 50 µg) or a cannabinoid 1 receptor (CB1R) antagonist (AM251; 150 µg) (Hervera et al., J Pharmacol Exp Ther, 2010, 334: 887-896; Hervera et al., Mol Pain, 2011, 7:25) was also evaluated (n = 6 animals per group). The doses of all tested opioid and cannabinoid receptor antagonists were selected according to our previous data in animals with chronic pain (Hervera et al., Naunyn Schmiedebergs Arch Pharmacol, 2009, 380:345-352; Hervera et al., Psychopharmacology, 2013, 228:463-477; Negrete et al., PLoS One, 2011, 6:e26688).
CoPP and SnPP were dissolved in DMSO (1 % solution in saline). JWH-015, AM630, AM251 were dissolved in DMSO (50 % solution in saline). […]

CFA-injected mice [3] = test: as above
Procedure: as §1
Chronic inflammatory pain was induced by the subplantar injection of 30 µl of CFA (Sigma) into the right hind paw under brief anesthetic conditions with isoflurane according to previous works (Leánez et al., Eur J Pharmacol, 2009, 602:41-49; Hervera et al., Naunyn Schmiedebergs Arch Pharmacol, 2009, 380:345-352). All experiments were performed at 10 days after CFA injection. […] The development of mechanical allodynia and thermal hyperalgesia was evaluated by using the von Frey filaments and plantar tests, respectively. […]
Thermal hyperalgesia was assessed as previously reported by Hargreaves et al. (Pain, 1988, 32:77-88). Paw withdrawal latency in response to radiant heat was measured using the plantar test apparatus (Ugo Basile, Varese, Italy). […] The mean paw withdrawal latencies from the ipsilateral and contralateral hind paws were determined from the average of three separate trials, taken at 5 min intervals to prevent thermal sensitization and behavioral disturbances. […]
In a first set of experiments, we assessed the expression of inflammatory pain induced by the subplantar administration of CFA as previously used (Leánez et al., Eur J Pharmacol, 2009, 602:41-49). […]

[4] = Table 7, CB2R agonist, subplantar JWH-015 300 µg, AM630 60 µg, AM251 150 µg, vehicle+vehicle 1.4 ± 0.1
[5] = Table 7, CB2R agonist, ipsilateral paw, subplantar JWH-015 300 µg, AM630 60 µg, AM251 150 µg, vehicle+vehicle 3.8 ± 0.3
[6] = Table 7, DOR agonist, subplantar DPDPE 150 µg, naltrindole 50 µg, NX-ME 50 µg, vehicle+vehicle 1.3 ± 0.1
[7] = Table 7, DOR agonist, ipsilateral paw, subplantar DPDPE 150 µg, naltrindole 50 µg, NX-ME 50 µg, vehicle+vehicle 3.4 ± 0.5

## Cc1c(C(=O)NN2CCCCC2)nn(-c2ccc(Cl)cc2Cl)c1-c1ccc(I)cc1 [AM251, N-(piperidin-1-yl)-5-(4-iodophenyl)-1-(2,4-dichlorophenyl)-4-methyl-1 H-pyrazole-3-carboxamide]
CFA-injected mice [1]; [4]
  Mechanical allodynia von Frey filaments strength: 1.4 ± 0.1 g
CFA-injected mice [1]; AM630 60 µg, AM251 150 µg
  reversal of the antiallodynic (antinociceptive) effects produced by 300 µg of JWH-015: unable to revert
CFA-injected mice [2]; [5]
  Thermal hyperalgesia Withdrawal latency: 3.6 ± 0.4 s
CFA-injected mice [2]; AM630 60 µg, AM251 150 µg
  reversal of the antihyperalgesic (antinociceptive) effects produced by 300 µg of JWH-015: unable to revert

## COc1ccc(C(=O)c2c(C)n(CCN3CCOCC3)c3cc(I)ccc23)cc1 [AM630]
CFA-injected mice [1]; [4]
  Mechanical allodynia von Frey filaments strength: 1.3 ± 0.1 g
CFA-injected mice [1]; AM630 60 µg, AM251 150 µg
  reversal of the antiallodynic (antinociceptive) effects produced by 300 µg of JWH-015: completely reversed
CFA-injected mice [2]; [5]
  Thermal hyperalgesia Withdrawal latency: 3.7 ± 0.2 s
CFA-injected mice [2]; AM630 60 µg, AM251 150 µg
  reversal of the antihyperalgesic (antinociceptive) effects produced by 300 µg of JWH-015: completely reversed

## CCCn1c(C)c(C(=O)c2cccc3ccccc23)c2ccccc21 [JWH-015, (2-Methyl-1-propyl-1H-indol-3-yl)-1-naphthalenylmethanone]
CFA-injected mice [1]; Table 6, JWH-015 30 µg subplantar, vehicle 4.1
  Mechanical allodynia, Experimental results (%) (maximal possible effect): 7.5%
CFA-injected mice [1]; [4]
  Mechanical allodynia von Frey filaments strength: 2.5 ± 0.2 g
CFA-injected mice [2]; Table 6, ipsilateral paw, CoPP 10 mg/kg intraperitoneal, JWH-015 30 µg subplantar, vehicle 4.9
  Thermal hyperalgesia, Experimental results (%) (maximal possible effect): 7.4%
CFA-injected mice [2]; [5]
  Thermal hyperalgesia Withdrawal latency: 9.2 ± 0.2 s

## C=CC[N+]1(C)CC[C@]23c4c5ccc(O)c4O[C@H]2C(=O)CC[C@@]3(O)[C@H]1C5 (some centres unmarked) [NX-ME, naloxone methiodide]
CFA-injected mice [1]; [6]
  Mechanical allodynia von Frey filaments strength: 1.2 ± 0.1 g
CFA-injected mice [1]; naltrindole 50 µg, NX-ME 50 µg
  reversal of the antiallodynic effects produced by 150 µg of DPDPE: completely reversed
CFA-injected mice [2]; [7]
  Thermal hyperalgesia Withdrawal latency: 3.6 ± 0.5 s
CFA-injected mice [2]; naltrindole 50 µg, NX-ME 50 µg
  reversal of the antihyperalgesic effects produced by 150 µg of DPDPE: completely reversed

## Oc1ccc2c3c1O[C@H]1c4[nH]c5ccccc5c4C[C@@]4(O)[C@@H](C2)N(CC2CC2)CC[C@]314 [Naltrindole, naltrindole]
CFA-injected mice [1]; [6]
  Mechanical allodynia von Frey filaments strength: 1.3 ± 0.1 g
CFA-injected mice [1]; naltrindole 50 µg, NX-ME 50 µg
  reversal of the antiallodynic effects produced by 150 µg of DPDPE: completely reversed
CFA-injected mice [2]; [7]
  Thermal hyperalgesia Withdrawal latency: 3.4 ± 0.6 s
CFA-injected mice [2]; naltrindole 50 µg, NX-ME 50 µg
  reversal of the antihyperalgesic effects produced by 150 µg of DPDPE: completely reversed

## C=Cc1c(C)c2cc3[nH]c(cc4nc(cc5nc(cc1[nH]2)C(C)=C5CCC(=O)[O-])C(CCC(=O)[O-])=C4C)c(C)c3C=C.[Cl-].[Cl-].[Sn+4] [SnPP, tin (IV) protoporphyrin IX dichloride]
CFA-injected mice [1]; SnPP 290 µg + DPDPE 150 µg subplantar, P < 0.001 (Fig. 5A)
  effect of SnPP coadministration on the local antiallodynic effects of DPDPE: significantly decreased
CFA-injected mice [1]; SnPP 290 µg + JWH-015 300 µg subplantar, P < 0.001 (Fig. 5A)
  effect of SnPP coadministration on the local antiallodynic effects of JWH-015: significantly decreased
CFA-injected mice [1]; SnPP alone 290 µg subplantar (Fig. 5A)
  mechanical allodynia induced by peripheral inflammation: did not alter
CFA-injected mice [2]; SnPP 290 µg + DPDPE 150 µg subplantar, P < 0.001 (Fig. 5B)
  effect of SnPP coadministration on the local antihyperalgesic effects of DPDPE: significantly decreased
CFA-injected mice [2]; SnPP 290 µg + JWH-015 300 µg subplantar, P < 0.001 (Fig. 5B)
  effect of SnPP coadministration on the local antihyperalgesic effects of JWH-015: significantly decreased
CFA-injected mice [2]; SnPP alone 290 µg subplantar (Fig. 5B)
  thermal hyperalgesia induced by peripheral inflammation: did not alter

## [2-D-penicillamine,5-D-penicillamine]-enkephalin [DPDPE]
CFA-injected mice [1]; Table 5, DPDPE 50 µg subplantar, vehicle 5.8
  Mechanical allodynia, Experimental results (%) (maximal possible effect): 11.8%
CFA-injected mice [1]; [6]
  Mechanical allodynia von Frey filaments strength: 2.4 ± 0.1 g
CFA-injected mice [1]; subplantar administration, DPDPE 50-150 µg, JWH-015 30-300 µg (Fig. 1A, 2A)
  mechanical allodynia induced by peripheral inflammation: dose-dependently inhibited
CFA-injected mice [3]; Table 5, ipsilateral paw, CoPP 10 mg/kg intraperitoneal, DPDPE 50 µg subplantar, vehicle 4.0
  Thermal hyperalgesia, Experimental results (%) (maximal possible effect): 16.0%
CFA-injected mice [3]; Table 7, DOR agonist, ipsilateral paw, subplantar DPDPE 150 µg, naltrindole 50 µg, NX-ME 50 µg, vehicle+vehicle 3.4 ± 0.5, mean ± SEM, n=6
  Thermal hyperalgesia Withdrawal latency: 9.2 ± 0.7 s
CFA-injected mice [3]; subplantar administration, DPDPE 50-150 µg, JWH-015 30-300 µg (Fig. 1B, 2B)
  thermal hyperalgesia induced by peripheral inflammation: dose-dependently inhibited
